This is an account of results in patent publication US12139481B2, “Compositions comprising macrocycle derivatives incorporating bridged macrocycles and methods of producing and using same” (Southwestern Oklahoma State University, priority 2015, dated 2024).

Holding throughout (type): cell-based
Assay [1] concerns Cryptococcus neoformans ATCC 90113. Kind of assay: Antimicrobial microdilution assay against Cryptococcus neoformans (modified CLSI/NCCLS, optical density). The note with it: for X more potent than Amphotericin B: C. neoformans, ratio of molar IC50 to Amphotericin B; for C. neoformans IC50 / IC50: in vitro, C. neoformans ATCC 90113; for IC50: read-out: C. neoformans IC50 (mol/L). The procedure, abridged:
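Broth microdilution (modified CLSI) in RPMI pH 6.0, samples serially diluted in 20% DMSO/saline and tested in duplicate, growth followed by OD630 before and after incubation. MFC is the lowest concentration giving no growth when 5 μL from clear wells is plated on agar.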
A general note: In broth dilution the organism is exposed to a series of concentrations in liquid medium.

Assay [2] relates to Plasmodium falciparum D6 clone (Sierra Leon, chloroquine-sensitive). Kind of assay: In vitro antimalarial assay, chloroquine-sensitive D6 clone. The note with it: D6 clone; for IC50: converted with molecular weight, read-out: P. falciparum D6 IC50; for X more potent than chloroquine: molar IC50 ratio versus chloroquine. The procedure, abridged:
(§1)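 Parasites grown in type A human RBCs; assay run on infected cell suspension at 2% parasitemia and 2% hematocrit, in duplicate at several concentrations. IC50 taken from dose curves, per the Makler method, with DMSO as vehicle; Vero cytotoxicity run in parallel to derive a selectivity index.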

The subject of assay [3] is Plasmodium falciparum W2 clone (Indochina, chloroquine-resistant). Kind of assay: In vitro antimalarial assay, chloroquine-resistant W2 clone. The note with it: W2 clone; for IC50: converted with molecular weight, read-out: P. falciparum W2 IC50; for X more potent than chloroquine: molar IC50 ratio versus chloroquine. Summed up: as §1
Assay [4] relates to Staphylococcus aureus ATCC 29213. Nature of the assay: Antibacterial broth dilution assay against S. aureus (modified CLSI). The note with it: for S. aureus IC50 / IC50: in vitro; for IC50: converted with molecular weight; for X more potent than ciprofloxacen: molar IC50 ratio versus ciprofloxacen. Summed up: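 Modified CLSI broth microdilution with OD monitoring before and after incubation at 35 °C: Candida in RPMI 1640/MOPS pH 6.0, 1.5×10^3 CFU/ml, 46-50 h; Staphylococcus in cation-adjusted Mueller-Hinton pH 7.3, 5.0×10^5 CFU/ml, 16-20 h. IC50 from curve fit; MIC is the lowest concentration with no growth; MFC/MBC from subculture.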

Where two headings read alike, the source gives them in different places.

With `c1ccc(CN2CCN3CCCN(CC2)CCN(Cc2ccccc2)CC3)cc1` [AW009, Bn2PBCyclen], in assay [1], the “X more potent than Amphotericin B” value is given as 0.01, the “C. neoformans IC50” value worked out at 6.740 mg/L and the IC50 came to 17.2 µM. For the same compound, in assay [2], the “P. falciparum D6 IC50” value worked out at 1.0770 mg/L, the IC50 worked out at 2.74 µM and the “X more potent than chloroquine” value amounted to 0.01. In assay [3], the “P. falciparum W2 IC50” value came out at 1.5560 mg/L, the IC50 amounted to 3.96 µM and the “X more potent than chloroquine” value is 0.17. In addition, in assay [4], the “S. aureus IC50” value stood at 2.010 mg/L, the IC50 amounted to 5.12 µM and the “X more potent than ciprofloxacen” value is listed as 0.05.

For the compound `[Cl][Mn-2]([Cl])([Cl])[Cl].[Mn+2].c1ccc(CN2CCCN3CCCN(CCCN(Cc4ccccc4)CC3)CC2)cc1` [BME08, [Mn(Bn2PBCyclam)][MnCl4]], in assay [1], the “X more potent than Amphotericin B” value is given as 0.13, the “C. neoformans IC50” value was determined as 1.203 mg/L and the IC50 is 1.79 µM. In assay [2], the “P. falciparum D6 IC50” value came to 0.0967 mg/L, the IC50 turned out to be 0.144 µM and the “X more potent than chloroquine” value worked out at 0.25. In assay [3], the “P. falciparum W2 IC50” value was 0.1206 mg/L, the IC50 stood at 0.179 µM and the “X more potent than chloroquine” value amounted to 3.78. For the same compound, in assay [4], the “S. aureus IC50” value was 0.800 mg/L, the IC50 turned out to be 1.19 µM and the “X more potent than ciprofloxacen” value turned out to be 0.23.

Regarding `CC(=O)[O-].F[P-](F)(F)(F)(F)F.[Ni+2].c1ccc(CN2CCCN3CCCN(CCCN(Cc4ccccc4)CC3)CC2)cc1` [DJD22, [Ni(Bn2PBCyclam)(OAc)]PF6], in assay [1], the “X more potent than Amphotericin B” value amounted to 0.03, the “C. neoformans IC50” value came out at 5.240 mg/L and the IC50 worked out at 7.67 µM. Also, in assay [2], the “P. falciparum D6 IC50” value came out at 0.7074 mg/L, the IC50 was 1.03 µM and the “X more potent than chloroquine” value was 0.04. For the same compound, in assay [3], the “P. falciparum W2 IC50” value is 0.9060 mg/L, the IC50 was determined as 1.33 µM and the “X more potent than chloroquine” value worked out at 0.51. Moreover, in assay [4], the “S. aureus IC50” value turned out to be 4.630 mg/L, the IC50 is 6.78 µM and the “X more potent than ciprofloxacen” value is 0.04.

For the compound `c1cc(CN2CCCN3CCCN(CCCNCC3)CC2)ccc1CN1CCCN2CCCN(CCCNCC2)CC1` [SLK10, p-H2PBCyclams], in assay [1], the “X more potent than Amphotericin B” value worked out at 0.01, the “C. neoformans IC50” value stood at 15.010 mg/L and the IC50 is 25.8 µM. In addition, in assay [2], the “P. falciparum D6 IC50” value was found to be 0.8657 mg/L, the IC50 came out at 1.49 µM and the “X more potent than chloroquine” value is 0.02. In assay [3], the “P. falciparum W2 IC50” value came out at 1.7920 mg/L, the IC50 was 3.07 µM and the “X more potent than chloroquine” value was found to be 0.22. For the same compound, in assay [4], the “S. aureus IC50” value amounted to 1.410 mg/L, the IC50 worked out at 2.42 µM and the “X more potent than ciprofloxacen” value came out at 0.11.

As for `CN1CCCN2CCN(CCCN(Cc3cccc(CN4CCCN5CCN(C)CCCN(CC5)CC4)c3)CC2)CC1.Cl.Cl.Cl.Cl.Cl.Cl.Cl.Cl` [TJS04, m-CB-cyclams HCl salt], in assay [1], the “X more potent than Amphotericin B” value was 0.61 and the “C. neoformans IC50” value amounted to 0.380 mg/L. In addition, the IC50 in assay [1] (HCl salt) came to 0.39 µM. In assay [2], the “P. falciparum D6 IC50” value turned out to be 0.7450 mg/L, the IC50 was found to be 0.852 µM and the “X more potent than chloroquine” value was found to be 0.04. For the same compound, in assay [3], the “P. falciparum W2 IC50” value is 0.6558 mg/L, the IC50 came to 0.75 µM and the “X more potent than chloroquine” value is reported as 0.90. In assay [4], the “S. aureus IC50” value amounted to 9.280 mg/L and the “X more potent than ciprofloxacen” value was 0.03. Besides, the IC50 in assay [4] (HCl salt) came out at 9.53 µM.
